According to PMC8887546, “Design and Synthesis of Brain Penetrant Glycopeptide Analogues of PACAP With Neuroprotective Potential for Traumatic Brain Injury and Parkinsonism” (Frontiers in drug discovery, 2022):
pEC50: −log10 of the molar value.

What was measured:
Type in all cases: cell-based
human VPAC1 receptor = target: T1, human VPAC1 receptor (Homo sapiens, UniProt P32241); assay: cAMP stimulation in CHO cells expressing VPAC1; details: for Emax: CHO, read-out: VPAC1 Emax; for Receptor selectivity ratio VPAC1/PAC1: ratio of cAMP EC50 values; for pEC50: read-out: VPAC1 EC50
T1 construct: expressed in transfected cells; host or cells: CHO cells (G418 selection)
T1 sequence (P32241 31-457): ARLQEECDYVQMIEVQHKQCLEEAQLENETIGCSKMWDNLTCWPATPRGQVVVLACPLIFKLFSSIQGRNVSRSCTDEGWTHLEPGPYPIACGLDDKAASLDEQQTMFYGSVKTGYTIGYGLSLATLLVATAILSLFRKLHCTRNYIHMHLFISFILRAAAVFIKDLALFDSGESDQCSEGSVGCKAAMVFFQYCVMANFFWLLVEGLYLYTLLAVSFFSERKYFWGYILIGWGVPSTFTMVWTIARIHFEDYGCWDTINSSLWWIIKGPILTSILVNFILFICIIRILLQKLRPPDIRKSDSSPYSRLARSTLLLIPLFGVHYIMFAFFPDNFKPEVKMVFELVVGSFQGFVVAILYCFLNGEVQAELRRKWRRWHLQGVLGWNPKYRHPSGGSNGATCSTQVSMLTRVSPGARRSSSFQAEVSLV

human VPAC2 receptor = target: T2, human VPAC2 receptor (Homo sapiens, UniProt P41587); assay: cAMP stimulation in CHO cells expressing VPAC2; details: for Emax: CHO; for Receptor selectivity ratio VPAC2/PAC1 / Receptor selectivity ratio VPAC2/VPAC1: ratio of cAMP EC50 values
T2 construct: expressed in transfected cells; host or cells: CHO cells (G418 selection)
T2 sequence (P41587 24-438): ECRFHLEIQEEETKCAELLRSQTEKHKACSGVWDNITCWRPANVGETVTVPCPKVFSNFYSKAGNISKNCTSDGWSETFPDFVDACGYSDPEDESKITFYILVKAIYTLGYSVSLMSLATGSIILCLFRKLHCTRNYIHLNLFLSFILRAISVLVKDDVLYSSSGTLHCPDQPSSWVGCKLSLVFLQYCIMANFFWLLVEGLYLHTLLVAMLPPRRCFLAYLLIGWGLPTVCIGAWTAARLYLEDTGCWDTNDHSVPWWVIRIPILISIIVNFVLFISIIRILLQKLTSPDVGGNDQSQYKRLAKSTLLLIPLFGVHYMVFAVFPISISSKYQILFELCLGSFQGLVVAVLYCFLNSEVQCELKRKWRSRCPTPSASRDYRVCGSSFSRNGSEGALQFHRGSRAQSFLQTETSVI
Procedure, shortened: (§1)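 Serum-starved CHO cells expressing human receptors were pre-treated 20 min with 500 μM IBMX, then exposed to agonist concentration curves for 10 min in 500 μM IBMX. cAMP quantified by competition with bovine PKA and ^3H-cAMP (1 h, room temperature), scintillation read.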

human PAC1 receptor = target: T3, human PAC1 receptor (Homo sapiens, UniProt P41586); assay: cAMP stimulation in CHO cells expressing PAC1; details: for Emax: CHO
T3 construct: expressed in transfected cells; host or cells: CHO cells (G418 selection)
T3 sequence (P41586 21-468): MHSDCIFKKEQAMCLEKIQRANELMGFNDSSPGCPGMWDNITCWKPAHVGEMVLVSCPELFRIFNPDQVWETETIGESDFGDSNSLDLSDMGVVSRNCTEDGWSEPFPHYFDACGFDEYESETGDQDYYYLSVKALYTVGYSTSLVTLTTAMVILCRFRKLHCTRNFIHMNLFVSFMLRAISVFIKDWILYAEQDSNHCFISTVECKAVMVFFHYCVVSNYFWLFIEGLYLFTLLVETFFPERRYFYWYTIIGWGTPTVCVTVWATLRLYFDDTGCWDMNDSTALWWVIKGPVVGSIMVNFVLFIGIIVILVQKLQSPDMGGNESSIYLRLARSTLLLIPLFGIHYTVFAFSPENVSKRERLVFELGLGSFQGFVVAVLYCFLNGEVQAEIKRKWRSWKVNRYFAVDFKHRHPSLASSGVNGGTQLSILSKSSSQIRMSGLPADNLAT
Procedure, shortened: as §1

| Compound | Emax (human VPAC1 receptor) [%] | Receptor selectivity ratio VPAC1/PAC1 (human VPAC1 receptor) | pEC50 (human VPAC1 receptor) | pEC50 (human VPAC2 receptor) | Emax (human VPAC2 receptor) [%] | pEC50 (human PAC1 receptor) | Emax (human PAC1 receptor) [%] | Receptor selectivity ratio VPAC2/PAC1 (human VPAC2 receptor) | Receptor selectivity ratio VPAC2/VPAC1 (human VPAC2 receptor) |
| --- | --- | --- | --- | --- | --- | --- | --- | --- | --- |
| CCC[C@H](NC(=O)[C@H](CCC(N)=O)NC(=O)[C@H](CCCCN)NC(=O)[C@H](CCCNC(=N)N)NC(=O)[C@H](Cc1ccc(O)cc1)NC(=O)[C@H](CCCNC(=N)N)NC(=O)[C@H](CO)NC(=O)[C@H](Cc1ccc(O)cc1)NC(=O)[C@H](CO)NC(=O)[C@H](CC(=O)O)NC(=O)[C@@H](NC(=O)[C@H](Cc1ccccc1)NC(=O)[C@@H](NC(=O)CNC(=O)[C@H](CC(=O)O)NC(=O)[C@@H](CO)NC(=O)[C@H](Cc1c[nH]cn1)NC(C)=O)[C@@H](C)CC)[C@@H](C)O)C(=O)N[C@@H](C)C(=O)N[C@H](C(=O)N[C@@H](CCCCN)C(=O)N[C@@H](CCCCN)C(=O)N[C@@H](Cc1ccc(O)cc1)C(=O)N[C@@H](CC(C)C)C(=O)N[C@@H](C)C(=O)N[C@@H](C)C(=O)N[C@H](C(=O)N[C@@H](CC(C)C)C(=O)N[C@@H](CO[C@@H]1O[C@H](CO)[C@@H](O)[C@H](O)[C@H]1O)C(N)=O)C(C)C)C(C)C [Ac-CRA3000] | 94 | – | – | – | 106 | – | 90 | – | – |
| CCC[C@H](NC(=O)[C@H](CCC(N)=O)NC(=O)[C@H](CCCCN)NC(=O)[C@H](CCCNC(=N)N)NC(=O)[C@H](Cc1ccc(O)cc1)NC(=O)[C@H](CCCNC(=N)N)NC(=O)[C@H](CO)NC(=O)[C@H](Cc1ccc(O)cc1)NC(=O)[C@H](CO)NC(=O)[C@H](CC(=O)O)NC(=O)[C@@H](NC(=O)[C@H](Cc1ccccc1)NC(=O)[C@@H](NC(=O)[C@@H](C)NC(=O)[C@H](CC(=O)O)NC(=O)[C@@H](CO)NC(=O)[C@@H](N)Cc1c[nH]cn1)[C@@H](C)CC)[C@@H](C)O)C(=O)N[C@@H](C)C(=O)N[C@H](C(=O)N[C@@H](CCCCN)C(=O)N[C@@H](CCCCN)C(=O)N[C@@H](Cc1ccc(O)cc1)C(=O)N[C@@H](CC(C)C)C(=O)N[C@@H](C)C(=O)N[C@@H](C)C(=O)N[C@H](C(=O)N[C@@H](CC(C)C)C(=O)N[C@@H](CO[C@@H]1O[C@H](CO)[C@@H](O)[C@H](O)[C@H]1O)C(N)=O)C(C)C)C(C)C [CRA3021] | 103 | 1.17 | 7.42 | 6.29 | 74 | 7.49 | 90 | 16.01 | 13.71 |
| CCC[C@H](NC(=O)CNC(=O)[C@H](CC(=O)O)NC(=O)[C@@H](CO)NC(=O)[C@@H](N)Cc1c[nH]cn1)C(=O)N[C@@H](Cc1ccccc1)C(=O)N[C@H](C(=O)N[C@@H](CC(=O)O)C(=O)N[C@@H](CO)C(=O)N[C@@H](Cc1ccc(O)cc1)C(=O)N[C@@H](CO)C(=O)N[C@@H](CCCNC(=N)N)C(=O)N[C@@H](Cc1ccc(O)cc1)C(=O)N[C@@H](CCCNC(=N)N)C(=O)N[C@@H](CCCCN)C(=O)N[C@@H](CCC(N)=O)C(=O)N[C@@H](CCC)C(=O)N[C@@H](C)C(=O)N[C@H](C(=O)N[C@@H](CCCCN)C(=O)N[C@@H](CCCCN)C(=O)N[C@@H](Cc1ccc(O)cc1)C(=O)N[C@@H](CC(C)C)C(=O)N[C@@H](C)C(=O)N[C@@H](C)C(=O)N[C@H](C(=O)N[C@@H](CC(C)C)C(=O)N[C@@H](CO[C@@H]1O[C@H](CO)[C@@H](O)[C@H](O)[C@H]1O)C(N)=O)C(C)C)C(C)C)[C@@H](C)O [CRA 3016] | 109 | 1.13 | 7.54 | 6.54 | 105 | 7.60 | 93 | 11.46 | 10.17 |
| CCC[C@H](NC(=O)[C@H](CCC(N)=O)NC(=O)[C@H](CCCCN)NC(=O)[C@H](CCCNC(=N)N)NC(=O)[C@H](Cc1ccc(O)cc1)NC(=O)[C@H](CCCNC(=N)N)NC(=O)[C@H](CO)NC(=O)[C@H](Cc1ccc(O)cc1)NC(=O)[C@H](CO)NC(=O)[C@H](CC(=O)O)NC(=O)[C@@H](NC(=O)[C@H](Cc1ccccc1)NC(=O)[C@@H](CCC)NC(=O)CNC(=O)[C@H](CC(=O)O)NC(=O)[C@@H](CO)NC(=O)[C@H](Cc1c[nH]cn1)NC(C)=O)[C@@H](C)O)C(=O)N[C@@H](C)C(=O)N[C@H](C(=O)N[C@@H](CCCCN)C(=O)N[C@@H](CCCCN)C(=O)N[C@@H](Cc1ccc(O)cc1)C(=O)N[C@@H](CC(C)C)C(=O)N[C@@H](C)C(=O)N[C@@H](C)C(=O)N[C@H](C(=O)N[C@@H](CC(C)C)C(=O)N[C@@H](CO[C@@H]1O[C@H](CO)[C@@H](O)[C@H](O)[C@H]1O)C(N)=O)C(C)C)C(C)C [Ac-CRA 3020] | 36 | – | 6.61 | < 5.60 | 71 | < 5.60 | 61 | – | – |

Now from value to molecule:

| Emax (human VPAC1 receptor) [%] | Receptor selectivity ratio VPAC1/PAC1 (human VPAC1 receptor) | pEC50 (human VPAC1 receptor) | pEC50 (human VPAC2 receptor) | Emax (human VPAC2 receptor) [%] | pEC50 (human PAC1 receptor) | Emax (human PAC1 receptor) [%] | Receptor selectivity ratio VPAC2/PAC1 (human VPAC2 receptor) | Receptor selectivity ratio VPAC2/VPAC1 (human VPAC2 receptor) | Compound |
| --- | --- | --- | --- | --- | --- | --- | --- | --- | --- |
| 72 | 0.77 | 6.19 | < 5.60 | 74 | 6.07 | 65 | – | – | CCCC[C@@H](NC(=O)CNC(=O)[C@H](CC(=O)O)NC(=O)[C@@H](CO)NC(=O)[C@@H](N)Cc1c[nH]cn1)C(=O)N[C@@H](Cc1ccccc1)C(=O)N[C@H](C(=O)N[C@@H](CC(=O)O)C(=O)N[C@@H](CO)C(=O)N[C@@H](Cc1ccc(O)cc1)C(=O)N[C@@H](CO)C(=O)N[C@@H](CCCNC(=N)N)C(=O)N[C@@H](Cc1ccc(O)cc1)C(=O)N[C@@H](CCCNC(=N)N)C(=O)N[C@@H](CCCCN)C(=O)N[C@@H](CCC(N)=O)C(=O)N[C@@H](CCC)C(=O)N[C@@H](C)C(=O)N[C@H](C(=O)N[C@@H](CCCCN)C(=O)N[C@@H](CCCCN)C(=O)N[C@@H](Cc1ccc(O)cc1)C(=O)N[C@@H](CC(C)C)C(=O)N[C@@H](C)C(=O)N[C@@H](C)C(=O)N[C@H](C(=O)N[C@@H](CC(C)C)C(=O)N[C@@H](CO[C@@H]1O[C@H](CO)[C@@H](O)[C@H](O)[C@H]1O)C(N)=O)C(C)C)C(C)C)[C@@H](C)O [CRA3019] |
| 18 | – | – | < 5.60 | 62 | 5.79 | 58 | – | – | CCCC[C@@H](NC(=O)CNC(=O)[C@H](CC(=O)O)NC(=O)[C@@H](CO)NC(=O)[C@H](Cc1c[nH]cn1)NC(C)=O)C(=O)N[C@@H](Cc1ccccc1)C(=O)N[C@H](C(=O)N[C@@H](CC(=O)O)C(=O)N[C@@H](CO)C(=O)N[C@@H](Cc1ccc(O)cc1)C(=O)N[C@@H](CO)C(=O)N[C@@H](CCCNC(=N)N)C(=O)N[C@@H](Cc1ccc(O)cc1)C(=O)N[C@@H](CCCNC(=N)N)C(=O)N[C@@H](CCCCN)C(=O)N[C@@H](CCC(N)=O)C(=O)N[C@@H](CCC)C(=O)N[C@@H](C)C(=O)N[C@H](C(=O)N[C@@H](CCCCN)C(=O)N[C@@H](CCCCN)C(=O)N[C@@H](Cc1ccc(O)cc1)C(=O)N[C@@H](CC(C)C)C(=O)N[C@@H](C)C(=O)N[C@@H](C)C(=O)N[C@H](C(=O)N[C@@H](CC(C)C)C(=O)N[C@@H](CO[C@@H]1O[C@H](CO)[C@@H](O)[C@H](O)[C@H]1O)C(N)=O)C(C)C)C(C)C)[C@@H](C)O [Ac-CRA 3019] |
| 96 | – | – | – | 116 | – | 92 | – | – | CCC[C@H](NC(=O)[C@H](CCC(N)=O)NC(=O)[C@H](CCCCN)NC(=O)[C@H](CCCNC(=N)N)NC(=O)[C@H](Cc1ccc(O)cc1)NC(=O)[C@H](CCCNC(=N)N)NC(=O)[C@H](CO)NC(=O)[C@H](Cc1ccc(O)cc1)NC(=O)[C@H](CO)NC(=O)[C@H](CC(=O)O)NC(=O)[C@@H](NC(=O)[C@H](Cc1ccccc1)NC(=O)[C@@H](NC(=O)CNC(=O)[C@H](CC(=O)O)NC(=O)[C@@H](CO)NC(=O)[C@@H](N)Cc1c[nH]cn1)[C@@H](C)CC)[C@@H](C)O)C(=O)N[C@@H](C)C(=O)N[C@H](C(=O)N[C@@H](CCCCN)C(=O)N[C@@H](CCCCN)C(=O)N[C@@H](Cc1ccc(O)cc1)C(=O)N[C@@H](CC(C)C)C(=O)N[C@@H](C)C(=O)N[C@@H](C)C(=O)N[C@H](C(=O)N[C@@H](CC(C)C)C(=O)N[C@@H](CO[C@@H]1O[C@H](CO)[C@@H](O[C@@H]2O[C@H](CO)[C@H](O)[C@H](O)[C@H]2O)[C@H](O)[C@H]1O)C(N)=O)C(C)C)C(C)C [CRA 3000-Lac] |
